Source: patent publication US20170190705A1, “Compositions and Methods for Inhibiting BMP” (THE BRIGHAM AND WOMAN'S HOSPITAL, INC., priority 2014, published 2017)
Read-outs that look alike come from different tables or passages of the source.

How the values were obtained:
Format in all cases: biochemical
BLK = BLK (Homo sapiens, UniProt P51451); test: Kinome profiling BLK; conditions: read-out: Inhibitory activity BLK; for inhibition at 0.1 µM: 100 nM
Procedure: (§1) . The kinome-wide selectivity was determined following the methods previously reported by Mohedas et al., ACS Chem Biol 2013, 8, 1291-1302 and Sanvitale et al., PLoS One 2013, 8, e62721.

PHKγ2 = target: T1, PHKγ2 (Homo sapiens, UniProt P15735); test: Kinome profiling PHKγ2; conditions: read-out: Inhibitory activity PHKγ2; for inhibition at 0.1 µM: 100 nM
T1 sequence (P15735 1-406): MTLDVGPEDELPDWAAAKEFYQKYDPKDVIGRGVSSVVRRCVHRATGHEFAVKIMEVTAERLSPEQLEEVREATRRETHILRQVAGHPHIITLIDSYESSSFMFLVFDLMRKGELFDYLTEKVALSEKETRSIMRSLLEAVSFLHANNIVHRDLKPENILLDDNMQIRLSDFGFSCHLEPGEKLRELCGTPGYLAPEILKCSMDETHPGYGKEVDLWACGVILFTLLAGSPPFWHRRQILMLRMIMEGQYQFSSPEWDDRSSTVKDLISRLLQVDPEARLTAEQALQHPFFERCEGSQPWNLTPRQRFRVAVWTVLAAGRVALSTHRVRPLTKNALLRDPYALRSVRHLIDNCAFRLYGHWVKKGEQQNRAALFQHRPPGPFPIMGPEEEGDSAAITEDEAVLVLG
Procedure: as §1

ROS = ROS (Homo sapiens, UniProt P08922); test: Kinome profiling ROS; conditions: read-out: Inhibitory activity ROS; for inhibition at 0.1 µM: 100 nM
Procedure: as §1

EPHB4 = target: T2, EPHB4 (Homo sapiens, UniProt P54760); test: Kinome profiling EPHB4; conditions: read-out: Inhibitory activity EPHB4; for inhibition at 0.1 µM: 100 nM
T2 sequence (P54760 16-987): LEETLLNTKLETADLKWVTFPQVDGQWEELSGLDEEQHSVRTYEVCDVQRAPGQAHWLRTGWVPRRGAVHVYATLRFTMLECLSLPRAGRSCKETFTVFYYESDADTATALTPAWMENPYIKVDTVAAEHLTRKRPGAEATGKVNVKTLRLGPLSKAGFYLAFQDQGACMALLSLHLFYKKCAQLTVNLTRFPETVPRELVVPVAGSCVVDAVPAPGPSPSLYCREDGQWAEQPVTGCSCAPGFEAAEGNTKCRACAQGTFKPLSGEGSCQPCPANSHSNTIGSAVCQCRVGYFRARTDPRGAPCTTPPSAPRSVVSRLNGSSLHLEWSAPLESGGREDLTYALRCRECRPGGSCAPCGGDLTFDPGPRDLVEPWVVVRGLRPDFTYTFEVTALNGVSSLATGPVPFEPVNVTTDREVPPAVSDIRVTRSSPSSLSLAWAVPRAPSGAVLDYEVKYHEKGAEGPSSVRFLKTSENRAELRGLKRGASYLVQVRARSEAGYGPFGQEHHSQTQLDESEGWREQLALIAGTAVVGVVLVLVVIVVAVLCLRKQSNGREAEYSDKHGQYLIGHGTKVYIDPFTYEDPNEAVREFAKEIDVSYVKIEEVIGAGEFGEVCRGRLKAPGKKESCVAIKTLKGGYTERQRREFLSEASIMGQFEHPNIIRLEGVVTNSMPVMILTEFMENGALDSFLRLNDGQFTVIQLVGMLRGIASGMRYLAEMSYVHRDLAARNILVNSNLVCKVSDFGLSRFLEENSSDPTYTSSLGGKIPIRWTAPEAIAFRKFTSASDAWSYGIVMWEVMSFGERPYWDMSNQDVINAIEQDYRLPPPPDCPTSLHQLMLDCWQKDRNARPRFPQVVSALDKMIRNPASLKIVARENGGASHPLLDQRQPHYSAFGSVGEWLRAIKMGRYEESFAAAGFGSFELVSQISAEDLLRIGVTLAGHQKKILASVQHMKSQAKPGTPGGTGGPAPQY
Procedure: as §1

PKA = PKA (Homo sapiens, UniProt P17612); test: Kinome profiling PKA; conditions: read-out: Inhibitory activity PKA; for inhibition at 0.1 µM: 100 nM
Procedure: as §1

LCK = LCK (Homo sapiens, UniProt P06239); test: Kinome profiling LCK; conditions: for inhibition at 0.1 µM: 100 nM
Procedure: as §1

MST1 = target: T3, MST1 (Homo sapiens, UniProt Q13043); test: Kinome profiling MST1; conditions: read-out: Inhibitory activity MST1; for inhibition at 0.1 µM: 100 nM
T3 sequence (Q13043 1-487): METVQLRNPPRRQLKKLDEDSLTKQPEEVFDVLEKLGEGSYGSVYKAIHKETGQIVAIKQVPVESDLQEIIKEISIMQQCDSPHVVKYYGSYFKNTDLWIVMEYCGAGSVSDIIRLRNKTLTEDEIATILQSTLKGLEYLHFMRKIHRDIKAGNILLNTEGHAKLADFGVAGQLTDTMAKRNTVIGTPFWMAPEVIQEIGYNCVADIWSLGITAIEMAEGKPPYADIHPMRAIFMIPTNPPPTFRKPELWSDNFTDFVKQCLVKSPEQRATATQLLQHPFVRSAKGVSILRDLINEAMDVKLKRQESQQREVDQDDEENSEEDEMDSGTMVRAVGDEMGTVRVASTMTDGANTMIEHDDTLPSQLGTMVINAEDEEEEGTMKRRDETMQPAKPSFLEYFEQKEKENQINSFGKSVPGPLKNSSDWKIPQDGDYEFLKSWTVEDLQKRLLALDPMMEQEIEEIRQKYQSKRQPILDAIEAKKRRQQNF
Procedure: as §1

MAP4K4 = MAP4K4 (Homo sapiens, UniProt O95819); test: Kinome profiling MAP4K4; conditions: for inhibition at 0.1 µM: 100 nM
Procedure: as §1

PI3-K-α = PI3-K-α (Homo sapiens, UniProt P42336); test: Kinome profiling PI3-K-α; conditions: read-out: Inhibitory activity PI3-K-α; for inhibition at 0.1 µM: 100 nM
Procedure: as §1

CDK2/cyclinE = CDK2/cyclinE (Homo sapiens, UniProt P24941); test: Kinome profiling CDK2/cyclinE; conditions: read-out: Inhibitory activity CDK2/cyclinE; for inhibition at 0.1 µM: 100 nM
Procedure: as §1

[1] = Table 4, read-out: Inhibitory Activity LCK
[2] = read-out: Inhibitory activity LCK
[3] = Table 4, read-out: Inhibitory Activity MAP4K4
[4] = read-out: Inhibitory activity MAP4K4

Sequence of BLK (P51451 whole entry): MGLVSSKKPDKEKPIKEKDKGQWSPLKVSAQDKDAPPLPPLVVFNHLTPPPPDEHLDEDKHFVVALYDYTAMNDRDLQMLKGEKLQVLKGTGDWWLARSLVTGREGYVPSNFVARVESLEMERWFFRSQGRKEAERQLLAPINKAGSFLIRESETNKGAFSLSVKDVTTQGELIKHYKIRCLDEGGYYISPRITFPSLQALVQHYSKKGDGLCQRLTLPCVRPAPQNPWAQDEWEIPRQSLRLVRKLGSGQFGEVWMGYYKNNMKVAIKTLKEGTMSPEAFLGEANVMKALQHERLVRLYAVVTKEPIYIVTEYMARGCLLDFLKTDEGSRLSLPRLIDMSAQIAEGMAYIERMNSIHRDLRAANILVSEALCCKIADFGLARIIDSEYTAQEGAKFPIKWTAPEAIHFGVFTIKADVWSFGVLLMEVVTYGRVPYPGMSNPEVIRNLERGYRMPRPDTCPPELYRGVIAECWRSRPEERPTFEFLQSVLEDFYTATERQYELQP
Sequence of ROS (P08922 28-2347): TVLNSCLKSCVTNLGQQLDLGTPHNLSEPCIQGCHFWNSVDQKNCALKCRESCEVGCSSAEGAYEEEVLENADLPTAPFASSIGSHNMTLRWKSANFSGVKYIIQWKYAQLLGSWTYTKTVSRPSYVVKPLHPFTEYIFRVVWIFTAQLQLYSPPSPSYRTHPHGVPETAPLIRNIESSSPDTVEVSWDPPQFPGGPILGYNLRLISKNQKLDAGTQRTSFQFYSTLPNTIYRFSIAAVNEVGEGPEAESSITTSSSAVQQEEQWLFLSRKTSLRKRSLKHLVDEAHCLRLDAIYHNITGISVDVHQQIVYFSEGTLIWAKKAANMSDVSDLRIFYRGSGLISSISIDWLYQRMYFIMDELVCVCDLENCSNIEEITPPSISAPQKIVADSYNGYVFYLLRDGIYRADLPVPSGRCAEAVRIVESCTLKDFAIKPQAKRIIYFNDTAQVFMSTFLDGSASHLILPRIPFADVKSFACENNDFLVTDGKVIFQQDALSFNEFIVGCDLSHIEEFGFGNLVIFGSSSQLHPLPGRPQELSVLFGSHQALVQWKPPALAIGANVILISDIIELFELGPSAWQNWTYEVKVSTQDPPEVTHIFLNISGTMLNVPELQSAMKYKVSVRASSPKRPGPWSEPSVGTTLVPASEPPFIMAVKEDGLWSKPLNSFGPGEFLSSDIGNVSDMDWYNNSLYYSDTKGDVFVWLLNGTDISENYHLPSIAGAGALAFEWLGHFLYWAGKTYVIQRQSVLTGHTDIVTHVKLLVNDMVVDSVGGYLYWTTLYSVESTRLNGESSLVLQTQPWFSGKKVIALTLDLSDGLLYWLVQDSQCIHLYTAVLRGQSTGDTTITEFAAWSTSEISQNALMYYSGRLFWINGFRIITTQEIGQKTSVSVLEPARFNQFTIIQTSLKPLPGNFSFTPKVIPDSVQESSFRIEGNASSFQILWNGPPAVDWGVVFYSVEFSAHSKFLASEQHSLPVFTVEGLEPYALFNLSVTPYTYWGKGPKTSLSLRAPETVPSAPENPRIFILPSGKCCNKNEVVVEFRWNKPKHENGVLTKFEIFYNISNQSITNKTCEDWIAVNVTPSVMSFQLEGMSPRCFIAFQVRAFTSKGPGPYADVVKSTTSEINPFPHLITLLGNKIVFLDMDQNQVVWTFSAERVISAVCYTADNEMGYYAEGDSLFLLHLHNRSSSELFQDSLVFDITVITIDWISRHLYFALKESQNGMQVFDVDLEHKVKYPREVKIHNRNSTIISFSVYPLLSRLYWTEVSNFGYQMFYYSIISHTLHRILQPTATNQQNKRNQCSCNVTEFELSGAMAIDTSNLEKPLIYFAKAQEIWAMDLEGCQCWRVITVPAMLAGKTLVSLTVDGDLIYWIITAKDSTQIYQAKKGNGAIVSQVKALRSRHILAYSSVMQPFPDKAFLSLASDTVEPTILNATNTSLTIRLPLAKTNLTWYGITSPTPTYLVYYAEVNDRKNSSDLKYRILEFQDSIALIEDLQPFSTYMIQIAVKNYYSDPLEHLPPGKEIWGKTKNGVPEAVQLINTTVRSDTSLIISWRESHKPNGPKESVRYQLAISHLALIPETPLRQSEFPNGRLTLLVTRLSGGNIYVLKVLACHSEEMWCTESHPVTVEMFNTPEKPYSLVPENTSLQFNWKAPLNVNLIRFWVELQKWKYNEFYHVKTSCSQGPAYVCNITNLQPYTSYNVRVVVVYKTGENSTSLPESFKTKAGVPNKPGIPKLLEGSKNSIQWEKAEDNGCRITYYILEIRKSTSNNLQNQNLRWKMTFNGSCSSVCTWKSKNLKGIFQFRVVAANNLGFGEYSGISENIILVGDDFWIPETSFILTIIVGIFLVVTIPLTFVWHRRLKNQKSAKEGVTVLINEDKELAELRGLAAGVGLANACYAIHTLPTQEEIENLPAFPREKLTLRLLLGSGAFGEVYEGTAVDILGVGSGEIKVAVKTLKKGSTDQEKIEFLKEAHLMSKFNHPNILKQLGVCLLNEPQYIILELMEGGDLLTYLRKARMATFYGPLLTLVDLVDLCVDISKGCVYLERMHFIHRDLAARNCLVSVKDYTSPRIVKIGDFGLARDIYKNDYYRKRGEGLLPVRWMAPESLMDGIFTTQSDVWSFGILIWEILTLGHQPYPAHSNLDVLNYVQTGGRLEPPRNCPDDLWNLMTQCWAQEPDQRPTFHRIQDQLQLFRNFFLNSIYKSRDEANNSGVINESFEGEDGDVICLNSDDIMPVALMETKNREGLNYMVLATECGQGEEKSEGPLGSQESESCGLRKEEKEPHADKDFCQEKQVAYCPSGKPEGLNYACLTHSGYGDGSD
Sequence of PI3-K-α (P42336 whole entry): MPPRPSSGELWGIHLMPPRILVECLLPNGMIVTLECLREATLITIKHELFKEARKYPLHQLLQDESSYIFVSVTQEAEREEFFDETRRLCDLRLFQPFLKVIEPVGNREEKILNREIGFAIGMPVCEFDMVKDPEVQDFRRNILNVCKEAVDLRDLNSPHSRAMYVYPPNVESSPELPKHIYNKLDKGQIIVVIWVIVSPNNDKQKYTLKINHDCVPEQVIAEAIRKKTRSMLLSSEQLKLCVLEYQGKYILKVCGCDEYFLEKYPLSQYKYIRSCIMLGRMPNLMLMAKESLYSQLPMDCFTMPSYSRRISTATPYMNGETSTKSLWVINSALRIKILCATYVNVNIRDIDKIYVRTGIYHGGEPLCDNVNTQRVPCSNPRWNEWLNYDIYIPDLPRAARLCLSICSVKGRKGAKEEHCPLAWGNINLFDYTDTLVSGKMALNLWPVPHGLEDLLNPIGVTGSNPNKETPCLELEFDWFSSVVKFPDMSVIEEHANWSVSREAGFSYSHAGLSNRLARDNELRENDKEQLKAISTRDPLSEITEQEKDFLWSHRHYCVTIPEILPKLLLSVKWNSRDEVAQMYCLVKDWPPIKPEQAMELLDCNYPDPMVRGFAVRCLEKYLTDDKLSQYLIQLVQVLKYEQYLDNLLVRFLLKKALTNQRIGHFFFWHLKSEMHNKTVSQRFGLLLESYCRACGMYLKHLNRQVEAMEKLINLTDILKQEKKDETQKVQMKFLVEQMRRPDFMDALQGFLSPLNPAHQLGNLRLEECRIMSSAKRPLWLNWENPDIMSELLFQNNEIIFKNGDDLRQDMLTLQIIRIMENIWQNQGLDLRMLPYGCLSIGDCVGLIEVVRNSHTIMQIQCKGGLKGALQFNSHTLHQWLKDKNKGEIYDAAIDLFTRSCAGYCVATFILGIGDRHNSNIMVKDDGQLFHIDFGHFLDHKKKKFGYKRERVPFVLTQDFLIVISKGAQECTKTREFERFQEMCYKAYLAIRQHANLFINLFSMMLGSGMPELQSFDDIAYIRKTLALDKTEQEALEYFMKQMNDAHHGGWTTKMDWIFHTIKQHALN
Sequence of PI3-K-α (P27986 whole entry partner): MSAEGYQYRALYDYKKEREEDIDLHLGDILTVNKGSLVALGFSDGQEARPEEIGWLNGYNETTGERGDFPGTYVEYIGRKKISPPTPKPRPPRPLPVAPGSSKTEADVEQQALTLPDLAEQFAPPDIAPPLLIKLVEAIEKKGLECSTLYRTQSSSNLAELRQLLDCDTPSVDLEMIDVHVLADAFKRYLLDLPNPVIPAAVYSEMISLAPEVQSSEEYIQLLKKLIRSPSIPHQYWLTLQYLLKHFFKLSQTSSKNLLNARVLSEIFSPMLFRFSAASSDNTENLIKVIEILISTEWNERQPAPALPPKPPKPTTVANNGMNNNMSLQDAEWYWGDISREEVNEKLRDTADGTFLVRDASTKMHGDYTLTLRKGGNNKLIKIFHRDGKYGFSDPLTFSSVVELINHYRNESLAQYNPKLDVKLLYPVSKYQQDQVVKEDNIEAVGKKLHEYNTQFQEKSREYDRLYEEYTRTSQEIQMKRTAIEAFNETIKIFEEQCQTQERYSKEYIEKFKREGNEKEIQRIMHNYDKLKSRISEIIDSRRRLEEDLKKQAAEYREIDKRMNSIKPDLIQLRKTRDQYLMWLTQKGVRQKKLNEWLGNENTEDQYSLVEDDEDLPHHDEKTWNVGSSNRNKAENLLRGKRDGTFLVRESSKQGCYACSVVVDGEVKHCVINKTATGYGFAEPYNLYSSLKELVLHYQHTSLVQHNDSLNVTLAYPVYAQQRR
Sequence of LCK (P06239 whole entry): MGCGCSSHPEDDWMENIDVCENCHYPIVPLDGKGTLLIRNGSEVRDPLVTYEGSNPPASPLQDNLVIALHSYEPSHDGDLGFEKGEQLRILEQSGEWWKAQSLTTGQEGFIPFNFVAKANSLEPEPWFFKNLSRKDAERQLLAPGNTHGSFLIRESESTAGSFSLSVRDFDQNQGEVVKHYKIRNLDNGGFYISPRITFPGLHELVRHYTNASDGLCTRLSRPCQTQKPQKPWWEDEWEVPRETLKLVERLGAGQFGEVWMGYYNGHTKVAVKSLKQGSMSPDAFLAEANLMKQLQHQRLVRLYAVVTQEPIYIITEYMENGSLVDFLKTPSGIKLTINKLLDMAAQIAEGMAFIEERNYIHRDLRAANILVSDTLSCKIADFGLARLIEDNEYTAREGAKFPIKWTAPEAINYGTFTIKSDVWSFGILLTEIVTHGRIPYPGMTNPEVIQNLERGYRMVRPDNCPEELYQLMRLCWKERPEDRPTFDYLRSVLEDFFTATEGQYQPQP

| SMILES | inhibition at 0.1 µM (BLK) | inhibition at 1 µM (BLK) | inhibition at 0.1 µM (PHKγ2) | inhibition at 1 µM (PHKγ2) | inhibition at 0.1 µM (ROS) | inhibition at 1 µM (ROS) | inhibition at 0.1 µM (EPHB4) | inhibition at 1 µM (EPHB4) | inhibition at 0.1 µM (PKA) | inhibition at 1 µM (PKA) | inhibition at 0.1 µM (LCK; [2]) | inhibition at 1 µM (LCK; [2]) | inhibition at 0.1 µM (MST1) | inhibition at 1 µM (MST1) | inhibition at 0.1 µM (MAP4K4; [4]) | inhibition at 1 µM (MAP4K4; [4]) | inhibition at 0.1 µM (PI3-K-α) | inhibition at 1 µM (PI3-K-α) | inhibition at 0.1 µM (CDK2/cyclinE) | inhibition at 1 µM (CDK2/cyclinE) | other results |
| --- | --- | --- | --- | --- | --- | --- | --- | --- | --- | --- | --- | --- | --- | --- | --- | --- | --- | --- | --- | --- | --- |
| COc1cc(-c2cc(-c3ccc(N4CCNCC4)cc3)cnc2C)cc(OC)c1OC [Compound 10, 1-(4-(6-methyl-5-(3,4,5-trimethoxyphenyl)pyridin-3-yl)phenyl)piperazine] | 1% | 12% | 1% | 0% | 2% | 2% | 5% | 8% | 1% | 3% | 21% | 65% | 3% | 3% | 34% | 92% | 5% | 7% | -1% | 3% | inhibition at 0.1 µM (LCK; [1]): 21%; inhibition at 1 µM (LCK; [1]): 65%; inhibition at 0.1 µM (MAP4K4; [3]): 34%; inhibition at 1 µM (MAP4K4; [3]): 92% |
| COc1cc(-c2cc(-c3ccc(N4CCNCC4)cc3)cnc2N)cc(OC)c1OC [Compound 15, 5-(4-(piperazin-1-yl)phenyl)-3-(3,4,5-trimethoxyphenyl)pyridin-2-amine] | 16% | 64% | 2% | 3% | 1% | 7% | 7% | 45% | 1% | 2% | 65% | 86% | 3% | 10% | 77% | 90% | 4% | 4% | 1% | 2% | – |
